Source: publication PMC10673995, “Discovery of a novel cardiac-specific myosin modulator using artificial intelligence-based virtual screening” (Nature Communications, 2023)
Values joined by “and” are separate entries in the source; they are usually repeats but may differ in a detail not shown here. Equal entries are not always repeated.

Tested on: isolated Langendorff-perfused rat hearts
Assay: Langendorff-perfused rat hearts, haemodynamic parameters
Parameters: key to LVSP, individual hearts / LVEDP, individual hearts: pressure in mmHg; Max (Figure 5c): unit not given here
Conditions: for Max (Figure 5c): one column per heart; for LVSP representative trace, ON: during perfusion with compound
Description: Next, we tested for the functional effects of F10 in isolated Langendorff-perfused rat hearts. Hearts were initially stabilized in modified Krebs-Henseleit (KH) solution for about 25–30 min and subsequently perfused with KH solution containing 20 μmol L^−1 F10 for 5 mins to reach a new steady state.
Rat hearts were Langendorff-perfused as described previously. Briefly, Wistar rats (Rattus norvegicus, male, 200–250 g, 7 weeks old) were anesthetized by injection of 0.9 mL sodium pentobarbitone 20% (w/v). […] The aorta was cannulated and secured with sutures (Mersilk 3‐0; Ethicon, Somerville, NJ, USA). Hearts were perfused at a constant perfusion pressure of 70 ± 2 mmHg using a peristaltic pump (Gilson Minipuls 4, Middleton, WI, USA) and a feedback control system (STH Pump Controller; AD Instruments, Oxford, UK). […] A fluid‐filled balloon, attached to a pressure transducer, was inserted into the left ventricle and inflated to give an end‐diastolic pressure between 3 and 8 mmHg. Left ventricular pressure (LVP), perfusion pressure, coronary flow and arterial and venous oxygen tensions were recorded using a PowerLab recorder and LabChart 8.0 software (ADInstruments). Functional parameters were averaged for ∼80 cardiac cycles at 5 min intervals.

[1] = 20 μmol L^−1 F10 or 1 μmol L^−1 Mavacamten
[2] = Time 11 min, during perfusion with 20 μmol L^−1 F10 or 1 μmol L^-1 Mavacamten
[3] = Time 12 min, during perfusion with 20 μmol L^−1 F10 or 1 μmol L^-1 Mavacamten
[4] = Time 13 min, during perfusion with 20 μmol L^−1 F10 or 1 μmol L^-1 Mavacamten
[5] = Time 14 min, during perfusion with 20 μmol L^−1 F10 or 1 μmol L^-1 Mavacamten
[6] = Time 15 min, during perfusion with 20 μmol L^−1 F10 or 1 μmol L^-1 Mavacamten

CCc1cc2c(=O)n(NC(=S)NC(C)C)cnc2s1 [F10]
decrease of LVSP (20 μmol L^−1 F10): about 65%
time to LVSP decrease (20 μmol L^−1 F10): 2 to 3 min
LVEDP (20 μmol L^−1 F10, baseline 1.9 ± 0.2): 22.0 ± 1.1 mmHg
Coronary flow (20 μmol L^−1 F10, baseline 15.6 ± 1.7): 16.7 ± 2.3 mL/min
LVSP (left ventricular systolic pressure) (20 μmol L^−1 F10, baseline 168.0 ± 8.5): 58.3 ± 2.2 mmHg and ~60 mmHg
Heart rate (20 μmol L^−1 F10, baseline 303 ± 8): 300 ± 4 bpm
dP dt-1max (20 μmol L^−1 F10, baseline 3978.8 ± 108.0): 1329.0 ± 153.8 mmHg s-1
dP dt-1min (20 μmol L^−1 F10, baseline -3352.4 ± 134.4): -1300.0 ± 104.2 mmHg s-1
effect on coronary perfusion / coronary flow [1]: without, however, affecting
effect on heart rate [1]: without, however, affecting
effect on left ventricular end-diastolic pressure (LVEDP) [1]: slightly increased
Max (Figure 5c) (Time 0 min): 4538.86 and 3737.57 and 4104.74 and 3514.73
Max (Figure 5c) (Time 1 min): 4533.2 and 3831.26 and 4064.23 and 3491.94
Max (Figure 5c) (Time 2 min): 4496.16 and 3879.38 and 4046.5 and 3811.01
Max (Figure 5c) (Time 3 min): 4752.62 and 3481.82 and 4079.42 and 3811
Max (Figure 5c) (Time 4 min): 4748.26 and 3745.17 and 3942.68 and 3866.71
Max (Figure 5c) (Time 5 min): 4784.79 and 3724.91 and 3914.83 and 3735.04
Max (Figure 5c) (Time 6 min): 4906.21 and 3922.42 and 4049.03 and 3689.46
Max (Figure 5c) (Time 7 min): 4229.13 and 4155.39 and 4130.07 and 3504.61
Max (Figure 5c) (Time 8 min): 3838.64 and 3904.7 and 4175.65 and 3570.44
Max (Figure 5c) (Time 9 min): 4069.64 and 3864.18 and 4233.89 and 3747.7
Max (Figure 5c) (Time 10 min): 4016.14 and 3757.83 and 4254.14 and 3608.43
LVEDP, individual hearts [2]: 15.6 and 9.2 (2×) and 12.7
LVSP, individual hearts [2]: 111 and 115 and 127 and 112
Max (Figure 5c) (Time 11 min): 2272.52 and 2689.23 and 2643.65 and 2375.23
LVEDP, individual hearts [3]: 29.6 and 15 and 19.6 and 15.9
LVSP, individual hearts [3]: 61 and 72 and 67 and 69
Max (Figure 5c) (Time 12 min): 1178.7 and 1696.59 and 1306.63 and 1372.47
LVEDP, individual hearts [4]: 33.1 and 16.4 and 22.8 and 17.5
LVSP, individual hearts [4]: 53 and 61 and 54 and 64
Max (Figure 5c) (Time 13 min): 944.61 and 1258.52 and 1063.54 and 1212.94
LVEDP, individual hearts [5]: 33.5 and 16.7 and 22.2 and 17.6
LVSP, individual hearts [5]: 53 and 62 and 55 and 63
LVEDP, individual hearts [6]: 24.3 and 20.65 and 23.5 and 19.6
LVSP, individual hearts [6]: 54 and 60 and 59 and 62
Max (Figure 5c) (Time 15 min): 1778.6 and 1228.13 and 1081.26
LVEDP, individual hearts (Time 16 min, after washout): 10.1 and 9 and 13.9 and 11.2
LVSP, individual hearts (Time 16 min, after washout): 56 and 118 and 105 and 99
Max (Figure 5c) (Time 16 min): 3660.62 and 2787.98 and 2279.01 and 1886.51
LVEDP, individual hearts (Time 17 min, after washout): 4.9 and 3.7 and 8.8 and 5.7
LVSP, individual hearts (Time 17 min, after washout): 80 and 162 and 174 and 148
Max (Figure 5c) (Time 17 min): 4729.41 and 3935.08 and 3990.79 and 3096.92
LVEDP, individual hearts (Time 18 min, after washout): 3.9 and 2 and 7.3 (2×)
LVSP, individual hearts (Time 18 min, after washout): 157 and 184 and 161 and 128
Max (Figure 5c) (Time 18 min): 4833.67 and 4428.87 and 3509.67 and 2539.83
LVEDP, individual hearts (Time 19 min, after washout): 4.5 and 0 and 5.9 and 6.4
LVSP, individual hearts (Time 19 min, after washout): 189 and 183 and 170 and 127
Max (Figure 5c) (Time 19 min): 4740.03 and 4469.38 and 3319.75 and 2476.52
LVEDP, individual hearts (Time 20 min, after washout): 4.8 and 1.5 and 7.4 and 6.4
LVSP, individual hearts (Time 20 min, after washout): 198 and 188 and 151 and 124
Max (Figure 5c) (Time 20 min): 4601.11 and 4596 and 3177.95 and 2499.31
LVEDP, individual hearts (Time 21 min, after washout): 3.4 and 1.5 and 7.5 and 6
LVSP, individual hearts (Time 21 min, after washout): 199 and 191 and 151 and 124
Max (Figure 5c) (Time 21 min): 4625.81 and 4497.24 and 3228.59 and 2473.99
LVEDP, individual hearts (Time 22 min, after washout): 0.7 and 0.5 and 7.5 and 6.6
LVSP, individual hearts (Time 22 min, after washout): 200 and 181 and 145 and 127
Max (Figure 5c) (Time 22 min): 4517.25 and 4112.34 and 3099.45 and 2489.18
LVEDP, individual hearts (Time 23 min, after washout): 3.5 and 0.4 and 5.8 and 6.4
LVSP, individual hearts (Time 23 min, after washout): 202 and 174 and 144 and 129
Max (Figure 5c) (Time 23 min): 4435.96 and 3988.26 and 3074.13 and 2524.63
LVEDP, individual hearts (Time 24 min, after washout): 3.4 and 1.5 and 6.4 and 5.5
LVSP, individual hearts (Time 24 min, after washout): 196 and 173 and 146 and 133
Max (Figure 5c) (Time 24 min): 4141.16 and 3968 and 3132.37 and 2582.87
LVEDP, individual hearts (Time 25 min, after washout): 2.4 and 0.2 and 5.3 and 4.7
LVSP, individual hearts (Time 25 min, after washout): 195 and 173 and 151 and 139
Max (Figure 5c) (Time 25 min): 4228.11 and 3945.21 and 3241.25 and 2668.97
LVSP representative trace, OFF (after washout, t 0 s): 26.9301 mmHg
LVSP representative trace, OFF (after washout, t 10 s): 27.9144 mmHg
LVSP representative trace, OFF (after washout, t 20 s): 30.1929 mmHg
LVSP representative trace, OFF (after washout, t 30 s): 33.9204 mmHg
LVSP representative trace, OFF (after washout, t 40 s): 39.0616 mmHg
LVSP representative trace, OFF (after washout, t 50 s): 45.8972 mmHg
LVSP representative trace, OFF (after washout, t 60 s): 54.0831 mmHg
LVSP representative trace, OFF (after washout, t 70 s): 63.6019 mmHg
LVSP representative trace, OFF (after washout, t 80 s): 75.1964 mmHg
LVSP representative trace, OFF (after washout, t 90 s): 88.9731 mmHg
LVSP representative trace, OFF (after washout, t 100 s): 99.8102 mmHg
LVSP representative trace, OFF (after washout, t 110 s): 110.826 mmHg
LVSP representative trace, OFF (after washout, t 120 s): 122.733 mmHg
LVSP representative trace, OFF (after washout, t 130 s): 132.379 mmHg
LVSP representative trace, OFF (after washout, t 140 s): 138.465 mmHg
LVSP representative trace, OFF (after washout, t 150 s): 148.942 mmHg
LVSP representative trace, OFF (after washout, t 160 s): 154.992 mmHg
LVSP representative trace, OFF (after washout, t 170 s): 158.488 mmHg
LVSP representative trace, OFF (after washout, t 180 s): 163.133 mmHg
LVSP representative trace, OFF (after washout, t 190 s): 167.458 mmHg
LVSP representative trace, OFF (after washout, t 200 s): 171.598 mmHg
LVSP representative trace, OFF (after washout, t 210 s): 175.866 mmHg
LVSP representative trace, OFF (after washout, t 220 s): 181.264 mmHg
LVSP representative trace, OFF (after washout, t 230 s): 184.759 mmHg
LVSP representative trace, OFF (after washout, t 240 s): 185.799 mmHg
LVSP representative trace, ON (t 0 s): 184.006 mmHg
LVSP representative trace, ON (t 10 s): 181.455 mmHg
LVSP representative trace, ON (t 20 s): 172.654 mmHg
LVSP representative trace, ON (t 30 s): 155.565 mmHg
LVSP representative trace, ON (t 40 s): 123.466 mmHg
LVSP representative trace, ON (t 50 s): 94.0285 mmHg
LVSP representative trace, ON (t 60 s): 73.0453 mmHg
LVSP representative trace, ON (t 70 s): 48.8284 mmHg
LVSP representative trace, ON (t 80 s): 40.271 mmHg
LVSP representative trace, ON (t 90 s): 34.4969 mmHg
LVSP representative trace, ON (t 100 s): 31.9133 mmHg
LVSP representative trace, ON (t 110 s): 30.398 mmHg
LVSP representative trace, ON (t 120 s): 28.7612 mmHg
LVSP representative trace, ON (t 130 s): 28.2624 mmHg
LVSP representative trace, ON (t 140 s): 27.1705 mmHg
Coronary flow (individual hearts): 18.7 mL/min and 18.0 mL/min and 20.0 mL/min and 10.0 mL/min
Heart rate (individual hearts): 295.0 bpm and 311.0 bpm and 292.0 bpm and 302.0 bpm
LVEDP (individual hearts): 30.3 mmHg and 17.9 mmHg and 22.8 mmHg and 18.2 mmHg
LVSP (individual hearts): 53.3 mmHg and 61.0 mmHg and 56.0 mmHg and 63.0 mmHg
dP dt-1max (individual hearts): 1778.6 mmHg s-1 and 1228.1 mmHg s-1 (2×) and 1081.3 mmHg s-1
dP dt-1min (individual hearts): -1606.8 mmHg s-1 and -1233.2 mmHg s-1 and -1142.0 mmHg s-1 and -1218.0 mmHg s-1
reversibility of the effect on washout (perfusion with KH solution in the absence of F10): completely reversible
